pIC50: −log10 of the molar value. Blank lines part the entries; values can stand above or below the compound they belong to.
Experiments:
HCT-116 [1] = experiment: Cytotoxicity against human HCT-116 cells assessed as reduction in cell viability by MTT assay; type: functional, cell-based
MCF7 = experiment: Cytotoxicity against human MCF7 cells assessed as inhibition of cell growth by MTT assay; type: functional, cell-based
[2] = Cytotoxicity against human HepG2 cells assessed as reduction in cell viability by MTT assay; type: functional, cell-based
A549 [3] = experiment: Cytotoxicity against human A549 cells assessed as reduction in cell viability by MTT assay; type: functional, cell-based
HeLa = experiment: Cytotoxicity against human HeLa cells assessed as inhibition of cell growth by MTT assay; type: functional, cell-based
PC-3 [4] = experiment: Cytotoxicity against human PC-3 cells assessed as reduction in cell growth incubated for 72 hrs by SRB assay; type: functional, cell-based; conditions: PC-3, 72 h
HepG2 = experiment: Cytotoxicity against human HepG2 cells assessed as reduction in cell viability incubated for 72 hrs by SRB assay; type: functional, cell-based; conditions: HepG2, 72 h
MDA-MB-231 = experiment: Cytotoxicity against human MDA-MB-231 cells assessed as inhibition of cell growth incubated for 72 hrs by SRB assay; type: functional, cell-based; conditions: MDA-MB-231, 72 h
PC-3 [5] = experiment: Cytotoxicity against human PC-3 cells assessed as reduction in cell viability incubated for 24 hrs by MTT assay; conditions: PC-3, 24 h
DU-145 [6] = experiment: cells; conditions: Homo sapiens, DU-145, 24 h
Description: Cytotoxicity against human DU-145 cells assessed as inhibition of cell growth incubated for 24 hrs by MTT assay

HCT-116 [7] = experiment: Antiproliferative activity against human HCT-116 cells assessed as reduction in cell proliferation measured after 72 hrs by MTT assay; type: functional, cell-based; conditions: HCT-116, 72 h
SW-620 = experiment: Antiproliferative activity against human SW620 cells assessed as reduction in cell viability incubated for 72 hrs by MTT assay; type: functional, cell-based; conditions: SW-620, 72 h
A549 [8] = experiment: Antiproliferative activity against human A549 cells assessed as reduction in cell viability by MTT assay; type: functional, cell-based
NCI-H460 = experiment: Antiproliferative activity against human NCI-H460 cells assessed as reduction in cell viability incubated for 24 hrs by MTT assay; type: functional, cell-based; conditions: NCI-H460, 24 h
[9] = Cmax in […] at 1 mg/kg, iv and measured upto 24 hrs by LC/MS/MS analysis; type: ADME, organism-based; set-up: time < 24 hrs, dose 1 mg/kg, route iv; conditions: in vivo
[10] = Half life in CD1 mouse at 1 mg/kg, iv by LC-MS/MS analysis; type: ADME, organism-based; conditions: in vivo
EKVX = experiment: Antiproliferative activity against human EKVX cells assessed as cell growth inhibition incubated for 72 hrs by MTT assay; type: functional, cell-based
[11] = AUC in mouse plasma at 3 mg/kg, iv measured upto 24 hrs by LC-MS/MS analysis; type: ADME, organism-based; set-up: dose 3 mg/kg, time < 24 hrs, route iv; conditions: in vivo
[12] = Clearance in […] at 3 mg/kg, iv incubated for 24 hrs by LC-MS/MS analysis; type: ADME, organism-based; conditions: in vivo
HCT-8 = experiment: Antiproliferative activity against human HCT-8 cells assessed as inhibition of cell growth; type: functional, cell-based
L1210 = experiment: Antiproliferative activity against mouse L1210 cells assessed as reduction in cell viability incubated for 48 hrs by MTT assay; type: functional, cell-based; conditions: L1210, 48 h
EL4 = experiment: Cytotoxicity against mouse EL4 cells assessed as inhibition of cell proliferation incubated for 72 hrs by MTT assay; type: functional, cell-based; conditions: EL4, 72 h
NCI-H69 = experiment: Antiproliferative activity against human NCI-H69 cells assessed as reduction in cell growth; type: functional, cell-based
[13] = Cmax in […] at 1 mg/kg, po and measured upto 24 hrs by LC/MS/MS analysis; type: ADME, organism-based; set-up: time < 24 hrs, dose 1 mg/kg, route po; conditions: in vivo
[14] = Cytotoxicity against human HaCaT cells assessed as reduction in cell viability; type: toxicity, cell-based
[15] = Oral bioavailability in mouse plasma; type: ADME, organism-based
[16] = Half life in iv dosed human plasma; type: ADME, organism-based
DU-145 [17] = experiment: Cytotoxicity against human DU-145 cells assessed as reduction in cell viability by SRB assay; type: functional, cell-based
[18] = Tmax in human plasma at 10 mg/kg, iv measured after 24 hrs; type: ADME, organism-based
[19] = Half life in human plasma after iv dosing; conditions: in vivo
A-375 = experiment: Anticancer activity against human A375 cells assessed as reduction in cell viability incubated for 72 hrs by MTT assay; type: functional, cell-based; conditions: A-375, 72 h
CWR22R = experiment: Cytotoxicity against human 22Rv1 cells assessed as cell growth inhibition; type: functional, cell-based
SK-MEL-5 = experiment: Antiproliferative activity against human SK-MEL-5 cells assessed as reduction in cell viability; type: functional, cell-based
LNCaP C4-2 [20] = experiment: Cytotoxicity against human LNCaP C4-2 cells assessed as cell growth inhibition incubated for 24 hrs by MTT assay; type: functional, cell-based; conditions: LNCaP C4-2, 24 h
LNCaP C4-2 [21] = experiment: Antiproliferative activity against human LNCaP C4-2 cells assessed as cell growth inhibition; type: functional, cell-based
PC-3 [22] = experiment: Anticancer activity against human PC-3 cells assessed as cell growth inhibition by sulforhodamine B assay; type: functional, cell-based
GBM528 (human) = experiment: Antiproliferative activity against human GBM528 cells assessed as sphere formation inhibition

Structure (SMILES): CC[C@@]1(O)C(=O)OCc2c1cc1n(c2=O)Cc2cc3c(-c4ccc(C(F)(F)F)cc4)c4c(cc3nc2-1)OCO4
pIC50 (HCT-116 [1]): 6.11
pIC50 (MCF7): 6.11
pIC50 [2]: 6.11
pIC50 (A549 [3]): 6.11
pIC50 (HeLa): 6.11

Structure (SMILES): N#Cc1c(-c2ccc(Br)cc2)cc(-c2ccc(OCc3ccc(F)cc3)cc2)[nH]c1=O
pIC50 (PC-3 [4]): 4.84
pIC50 (HepG2): 4.84
pIC50 (MDA-MB-231): 4.84

pIC50 (DU-145 [6]): 4.60
Structure (SMILES): Cc1cccc(Nc2nc3nonc3nc2N/N=C/c2ccc(-c3cccc(C(=O)O)c3)o2)c1C
pIC50 (PC-3 [5]): 4.70

Structure (SMILES): N#Cc1c(-c2ccc(Br)cc2)cc(-c2ccc(OCc3ccc(F)cc3)cc2)nc1N
pIC50 (PC-3 [4]): 4.52
pIC50 (HepG2): 4.52
pIC50 (MDA-MB-231): 4.52

Structure (SMILES): CC[C@@]1(O)C(=O)OCc2c1cc1n(c2=O)Cc2cc3cc4c(cc3nc2-1)OCO4
pIC50 (HCT-116 [7]): 8.30
pIC50 (SW-620): 8.05
pIC50 (A549 [8]): 8.05
pIC50 (NCI-H460): 8.52
Cmax [9]: 43 ng/mL
half-life [10]: 1.8 h
pIC50 (EKVX): 8.22
AUC [11]: 82 ng·h/mL
clearance [12]: 900 mL/min/kg
pIC50 (HCT-8): 8.30

pIC50 (L1210): 6.82
Structure (SMILES): CO[C@]12CC(=O)O[C@]13C(=O)c1c(cc4cc(O)c5c(c4c1O)CN(C)C5=O)C(=O)[C@]3(O[C@H]1CC[C@H](O)[C@H](C)O1)CO2
pIC50 (EL4): 6.95

pIC50 (NCI-H69): 5.22
Structure (SMILES): Oc1cc(CCCCc2cc(O)c(O)c(O)c2)cc(O)c1O

Cmax [13]: 442 ng/mL
Cmax [9]: 1060 ng/mL
bioavailability [15]: 88.3%
AUC [11]: 2980 ng·h/mL
Structure (SMILES): COc1ccc(C[C@@H](C)[C@@H](C)Cc2ccc(OC)c(OC)c2)cc1OC [TERAMEPROCOL]
pIC50 [14]: 4.07

pIC50 (DU-145 [6]): 4.22
Structure (SMILES): O=C1N=c2ccc(Nc3nc4nonc4nc3N/N=C/c3ccccc3OCc3ccc(Cl)cc3Cl)cc2=N1
pIC50 (PC-3 [5]): 4.30

half-life [16]: 26.3 h
Tmax [18]: 46 h
Cmax [9]: 10.7 ng/mL
half-life [19]: 17.2 h
pIC50 (A-375): 8.22
AUC [11]: 1440 ng·h/mL
clearance [12]: 795 mL/min/kg
pIC50 (SK-MEL-5): 8.40
Structure (SMILES): COCCn1c2c([n+](Cc3cnccn3)c1C)C(=O)c1ccccc1C2=O.[Br-] [SEPANTRONIUM BROMIDE]
pIC50 (DU-145 [17]): 8.40
pIC50 (CWR22R): 7.96

pIC50 (LNCaP C4-2 [21]): 5.72
pIC50 (PC-3 [22]): 5.37
Structure (SMILES): Nc1nonc1C(=O)N/N=C1\c2ccccc2-c2nc3nonc3nc21
pIC50 (LNCaP C4-2 [20]): 5.72
pIC50 (PC-3 [5]): 5.37

Structure (SMILES): N#Cc1c(-c2ccc(Cl)cc2)cc(-c2ccc(OCc3ccc(F)cc3)cc2)[nH]c1=S
pIC50 (PC-3 [4]): 4.64
pIC50 (HepG2): 4.64
pIC50 (MDA-MB-231): 4.64

pIC50 (NCI-H69): 5.41
Structure (SMILES): Oc1ccc(CCCCc2ccc(O)cc2)cc1

Structure (SMILES): N#Cc1c(-c2cc(OCc3ccccc3)cc(OCc3ccccc3)c2)cc(-c2cc(Cl)ccc2O)[nH]c1=O
pIC50 (GBM528 (human)): 4.51

pIC50 (DU-145 [6]): 5.46
Structure (SMILES): CCOC(=O)c1ccc(Nc2nc3nonc3nc2N/N=C/c2c[nH]nc2-c2ccccc2)cc1

Structure (SMILES): COc1ccc(-c2cc(-c3ccc(OCc4ccc(F)cc4)cc3)[nH]c(=O)c2C#N)cc1
pIC50 (PC-3 [4]): 5.35
pIC50 (HepG2): 5.22
pIC50 (MDA-MB-231): 5.44

Structure (SMILES): N#Cc1c(-c2ccc(F)cc2)cc(-c2ccc(OCc3ccc(F)cc3)cc2)[nH]c1=O
pIC50 (PC-3 [4]): 4.84
pIC50 (HepG2): 4.84
pIC50 (MDA-MB-231): 4.84

Reference: ChEMBL document CHEMBL5375997, “Small Molecule Inhibitors Targeting the "Undruggable" Survivin: The Past, Present, and Future from a Medicinal Chemist's Perspective” (J Med Chem, 2023)
